In US20060241026A1, “Novel cyclic peptides and use thereof as anti-microbial agents” (priority 2002, published 2006):
Converted amounts (≈) assume the structure as drawn. Where two headings read alike, the source gives them in different places. Positions of bridges follow the written chain, without caps; N, C: chain ends. Residues, ends and D or L forms follow the SMILES beside them. No end group written: not given here.

How the values were obtained:
Assay type in all cases: cell-based
Staphylococcus aureus = test system: Staphylococcus aureus
Protocol: (§1) The activity of the synthetic peptides was tested with respect to the Gram+ bacteria Mycrocossus luteus, Staphylococcus aureus, Staphylococcus epidermidis and Bacillus megaterium. The activities were determined according to the protocol described by HANCOCK et al. (http://www.interchg.ubc.ca/bobh/methods.htm)
(§2) The MIC was determined for each peptide by inhibition of growth in liquid medium. Doubling dilution of peptide was realized in the wells of a Microtest plate in a volume of 10 μl. The bacteria were grown in MUELLER HINTON BROTH (MHB, Difco) liquid medium. During the exponential growth phase, a solution with an optical density of 0.001 at 600 nm was produced, and 100 μl of this suspension were added to each well. The incubation lasted 24 h at 30° C., and the optical densities of each well were then measured at 600 nm. The value of the MIC corresponds to the first well for which the optical density had not changed.
(§3) The dishes were incubated for 24 h at 30° C. The value of the MBC corresponds to the lowest concentration of the peptide for which no colony developed.

[1] = test system: Staphylococcus epidermidis
Protocol: as §1, §2, §3

Bacillus megaterium = settings: Bacillus
Protocol: as §1, §2, §3

Micrococcus luteus = test system: Micrococcus luteus
Protocol: as §1, §2, §3

Fusarium oxysporum = settings: 24 h
Protocol: (§4) The anti-fungal activity was determined by calculating the MIC in a growth inhibition assay for the shrimp parasite fungus Fusarium oxysporum, in liquid phase, according to the protocol described by FELHBAM et al. (J. Biol. Chem., 1994, 269:33159-63). Doubling dilutions of each peptide were realized in the wells of a Microtest plate in a volume of 10 μl. 90 μl of spores resuspended in potato dextrose broth medium (DIFCO) at a final concentration of 10^4 spores/ml were added to each well. The growth inhibition was measured after incubation for 24 h at 25° C. in the dark, by observation under an optical microscope and measurement of the increase in OD at 600 nm. The value of the MIC corresponds to the first well for which the optical density had not increased.

[2] = test system: Gram+ and Gram− bacteria and a filamentous fungus; test: Antibiotic tests on Gram+ and Gram- bacteria and on a filamentous fungus, summary in words; settings: compared with the native molecule or the minimal loop
Protocol: as §1, §2, §3, §4
Using the 3-D structure of the native molecule as a basis, said molecule was fractionated into 17 elements (table I). All these fragments were synthesized and their activities were assayed using antibiotic tests on Gram+ and Gram− bacteria and on a filamentous fungus. The minimum inhibitory concentration (MIC) and minimum […] concentration (MBC) of each peptide were thus determined and were compared with those of the native molecule.

[3] = test system: Micrococcus lysodeikticus
Protocol: as §2, §3

CC(C)C[C@@H]1NC(=O)[C@H](CCCNC(=N)N)NC(=O)[C@H](Cc2c[nH]cn2)NC(=O)[C@H](Cc2c[nH]c3ccccc23)NC(=O)CNC(=O)CNC(=O)[C@@H](NC(=O)[C@H](Cc2ccc(O)cc2)NC(=O)CNC(=O)CNC(=O)[C@@H](N)CO)CSSC[C@@H](C(=O)O)NC(=O)[C@H](CCCNC(=N)N)NC1=O [SEQ ID NO:4, SGGYC^(S)GGWHRLRS^(S)] (H-SGGYCGGWHRLRC-OH; disulfide 5-13; N-terminus and C-terminus assumed)
Staphylococcus aureus MBC (Staphylococcus aureus): >75 µM
Staphylococcus aureus MIC (Staphylococcus aureus): 67 µM
Staphylococcus epidermidis MBC [1]: >75 µM
Staphylococcus epidermidis MIC [1]: 38 µM
Bacillus megaterium MBC (Bacillus megaterium): >75 µM
Bacillus megaterium MIC (Bacillus megaterium): 52 µM
Micrococcus luteus MBC (Micrococcus luteus): 13 µM
Micrococcus luteus MIC (Micrococcus luteus): 26 µM
MIC on M leuteus (Micrococcus luteus; 24 h): 67 µM (≈ 97.1 µg/mL)
Fusarium oxysporum MIC (Fusarium oxysporum): 41 µM

CC(C)C[C@@H]1NC(=O)[C@H](CCCNC(=N)N)NC(=O)[C@H](Cc2c[nH]cn2)NC(=O)[C@H](Cc2c[nH]c3ccccc23)NC(=O)CNC(=O)CNC(=O)[C@H](CO)NC(=O)[C@H](Cc2ccc(O)cc2)NC(=O)CNC(=O)CNC(=O)[C@@H](N)CSSC[C@@H](C(=O)NCC(=O)O)NC(=O)[C@H](CCCNC(=N)N)NC(=O)[C@H](Cc2ccc(O)cc2)NC(=O)[C@H](CO)NC(=O)[C@H]([C@@H](C)O)NC(=O)[C@H](CO)NC(=O)[C@H](CCCNC(=N)N)NC1=O [SEQ ID NO:5, C^(S)GGYSGGWHRLRSTSYRC^(S)G] (H-CGGYSGGWHRLRSTSYRCG-OH; disulfide 1-18; N-terminus and C-terminus assumed)
Staphylococcus aureus MBC (Staphylococcus aureus): >75 µM
Staphylococcus aureus MIC (Staphylococcus aureus): 14 µM
Staphylococcus epidermidis MBC [1]: >75 µM
Staphylococcus epidermidis MIC [1]: 35 µM
Bacillus megaterium MBC (Bacillus megaterium): 75 µM
Bacillus megaterium MIC (Bacillus megaterium): 24 µM
Micrococcus luteus MBC (Micrococcus luteus): 18 µM
Micrococcus luteus MIC (Micrococcus luteus): 18 µM
MBC on M leuteus (Micrococcus luteus; 24 h): 13 µM (≈ 27.3 µg/mL)
Fusarium oxysporum MIC (Fusarium oxysporum): 18.5 µM

CC[C@H](C)[C@@H]1NC(=O)[C@H](CO)NC(=O)[C@H](CCCCN)NC(=O)[C@@H](NC(=O)[C@H](Cc2c[nH]cn2)NC(=O)[C@H](CCCNC(=N)N)NC(=O)[C@H](Cc2c[nH]cn2)NC(=O)[C@H](CO)NC(=O)[C@H](CCC(N)=O)NC(=O)[C@H](Cc2ccc(O)cc2)NC(=O)[C@H](CC(N)=O)NC(=O)[C@H](CC(N)=O)NC(=O)[C@@H]2CCCN2)CSSC[C@@H](C(=O)O)NC(=O)[C@H](CCCNC(=N)N)NC(=O)CNC(=O)[C@@H]2CCCN2C1=O [SEQ ID NO:11, PNNYQSHRHCKSIPGRC] (H-PNNYQSHRHCKSIPGRC-OH; disulfide 10-17; N-terminus and C-terminus assumed)
MIC on M leuteus (Micrococcus luteus; 24 h): >75 µM

CC[C@H](C)[C@@H]1NC(=O)[C@H](CO)NC(=O)[C@H](CCCCN)NC(=O)[C@@H](N)CSSC[C@@H](C(=O)NCC(=O)O)NC(=O)[C@H](CCCNC(=N)N)NC(=O)CNC(=O)[C@@H]2CCCN2C1=O [SEQ ID NO:15, CKSIPGRCG] (H-CKSIPGRCG-OH; disulfide 1-8; N-terminus and C-terminus assumed)
anti-microbial activity (in words) [2]: show no activity
MIC on M leuteus (Micrococcus luteus; 24 h): >75 µM

C[C@@H](O)[C@@H]1NC(=O)[C@H](CO)NC(=O)[C@H](CO)NC(=O)[C@H](Cc2ccc(O)cc2)NC(=O)CNC(=O)CNC(=O)[C@@H](N)CSSC[C@@H](C(=O)NCC(=O)O)NC(=O)[C@H](CCCNC(=N)N)NC(=O)[C@H](Cc2ccc(O)cc2)NC(=O)[C@H](CO)NC1=O [SEQ ID NO:16, CGGYSSTSYRCG] (H-CGGYSSTSYRCG-OH; disulfide 1-11; N-terminus and C-terminus assumed)
anti-microbial activity (in words) [2]: do not comprise any intrinsic activity
MIC on M leuteus (Micrococcus luteus; 24 h): >75 µM

CC(C)C[C@@H]1NC(=O)[C@H](CCCNC(=N)N)NC(=O)[C@H](CCCCN)NC(=O)[C@H](Cc2c[nH]c3ccccc23)NC(=O)CNC(=O)CNC(=O)[C@@H](N)CSSC[C@@H](C(=O)O)NC(=O)[C@H](CCCNC(=N)N)NC1=O [SEQ ID NO:19, C^(S)GGWKRLRC^(S)] (H-CGGWKRLRC-OH; disulfide 1-9; N-terminus and C-terminus assumed)
Staphylococcus aureus MBC (Staphylococcus aureus): 20 µM
Staphylococcus aureus MIC (Staphylococcus aureus): 33 µM
Micrococcus lysodeikticus MIC [3]: 13 µM

N=C(N)NCCC[C@@H]1NC(=O)[C@H](CCCCN)NC(=O)[C@H](CCCNC(=N)N)NC(=O)[C@H](CCCCN)NC(=O)[C@H](Cc2c[nH]c3ccccc23)NC(=O)CNC(=O)CNC(=O)[C@@H](N)CSSC[C@@H](C(=O)O)NC1=O [SEQ ID NO:20, C^(S)GGWKRKRC^(S)] (H-CGGWKRKRC-OH; disulfide 1-9; N-terminus and C-terminus assumed)
Staphylococcus aureus MBC (Staphylococcus aureus): 16 µM
Staphylococcus aureus MIC (Staphylococcus aureus): 23 µM
Micrococcus lysodeikticus MIC [3]: 8 µM

N=C(N)NCCC[C@@H]1NC(=O)[C@H](CCCCN)NC(=O)[C@H](CCCNC(=N)N)NC(=O)[C@H](CCCCN)NC(=O)[C@H](Cc2c[nH]c3ccccc23)NC(=O)[C@H](CCCCN)NC(=O)[C@H](CCCCN)NC(=O)[C@@H](N)CSSC[C@@H](C(=O)O)NC1=O [SEQ ID NO:21, C^(S)KKWKRKRC^(S)] (H-CKKWKRKRC-OH; disulfide 1-9; N-terminus and C-terminus assumed)
Staphylococcus aureus MBC (Staphylococcus aureus; Table III): 9.9 µM
Staphylococcus aureus MIC (Staphylococcus aureus; Table III): 4.4 µM
Staphylococcus epidermidis MIC ([1]; Table III): 6.8 µM
Micrococcus lysodeikticus MBC ([3]; Table III): 9.9 µM
Micrococcus lysodeikticus MIC ([3]; Table III): 6 µM

N=C(N)NCCC[C@@H]1NC(=O)[C@H](CCCCN)NC(=O)[C@H](CCCNC(=N)N)NC(=O)[C@H](CCCCN)NC(=O)[C@H](Cc2c[nH]c3ccccc23)NC(=O)[C@H](CCCCN)NC(=O)[C@@H](N)CSSC[C@@H](C(=O)O)NC1=O [SEQ ID NO:22, C^(S)KWKRKRC^(S)] (H-CKWKRKRC-OH; disulfide 1-8; N-terminus and C-terminus assumed)
Staphylococcus aureus MBC (Staphylococcus aureus; Table III): 14.8 µM
Staphylococcus aureus MIC (Staphylococcus aureus; Table III): 6.6 µM
Micrococcus lysodeikticus MBC ([3]; Table III): 14.8 µM
Micrococcus lysodeikticus MIC ([3]; Table III): 14.8 µM

N=C(N)NCCC[C@@H]1NC(=O)[C@H](CCCCN)NC(=O)[C@H](CCCNC(=N)N)NC(=O)[C@H](CCCCN)NC(=O)[C@H](Cc2c[nH]c3ccccc23)NC(=O)[C@@H](N)CSSC[C@@H](C(=O)O)NC1=O [SEQ ID NO:23, C^(S)WKRKRC^(S)] (H-CWKRKRC-OH; disulfide 1-7; N-terminus and C-terminus assumed)
anti-microbial activity (in words) [2]: weaker
Staphylococcus aureus MBC (Staphylococcus aureus; Table III): 22.2 µM
Staphylococcus aureus MIC (Staphylococcus aureus; Table III): 22.2 µM
Micrococcus lysodeikticus MIC ([3]; Table III): 22.2 µM

N=C(N)NCCC[C@@H]1NC(=O)[C@H](CCCCN)NC(=O)[C@H](Cc2c[nH]c3ccccc23)NC(=O)[C@@H](N)CSSC[C@@H](C(=O)O)NC(=O)[C@H](CCCCN)NC1=O [SEQ ID NO:24, C^(S)WKRKC^(S)] (H-CWKRKC-OH; disulfide 1-6; N-terminus and C-terminus assumed)
anti-microbial activity (in words) [2]: does not exhibit any significant biological activity
Staphylococcus aureus MBC (Staphylococcus aureus; Table III): >50 µM
Staphylococcus aureus MIC (Staphylococcus aureus; Table III): >50 µM
Micrococcus lysodeikticus MIC ([3]; Table III): >50 µM

GFGSPNNYQS [SEQ ID NO:8, GFGSPNNYQS]
MIC on M leuteus (Micrococcus luteus; 24 h): >75 µM

GFGSPNNYQSHRHSKSIPGR [SEQ ID NO:9]
MIC on M leuteus (Micrococcus luteus; 24 h): >75 µM

NYQSHRHSKS [SEQ ID NO:13, NYQSHRHSKS]
MIC on M leuteus (Micrococcus luteus; 24 h): >75 µM

PNNYQSHRHSKSIPGRGR [SEQ ID NO:10, PNNYQSHRHSKSIPGRGR]
MIC on M leuteus (Micrococcus luteus; 24 h): >75 µM

PNNYQSHRHSKSIPGRS [SEQ ID NO:12, PNNYQSHRHSKSIPGRS]
MIC on M leuteus (Micrococcus luteus; 24 h): >75 µM

RLRSTSYRSG [SEQ ID NO:18, RLRSTSYRSG]
MIC on M leuteus (Micrococcus luteus; 24 h): >75 µM

SGGWHRLRS [SEQ ID NO:17, SGGWHRLRS]
anti-microbial activity (in words) [2]: devoid of activity
MIC on M leuteus (Micrococcus luteus; 24 h): >75 µM

SKSIPGRSG [SEQ ID NO:14, SKSIPGRSG]
anti-microbial activity (in words) [2]: show no activity
MIC on M leuteus (Micrococcus luteus; 24 h): >75 µM
